For one data set, the system named is HeLa S3. Description: XTT cytotoxicity assay, HeLa S3. It counts as cell-based. Particulars: Homo sapiens, HeLa S3; 72 h incubation; read-out: XTT, IC50 HeLa S3. On the procedure:
(§1) HL-60, Hela S3 and HepG2 cell lines (ATCC) were grown in RPMI-1640 or DMEM medium supplemented with 10% fetal calf serum, […] of streptomycin, 200 U/mL of penicillin G and 4 mM glutamine in a humidified atmosphere containing 5% CO2 at 37° C. Sensitivity of these cell lines to the synthesized compounds was assessed with the use of XTT cell proliferation kit II (Roche Diagnostics GmbH, Mannheim, Germany) according to the manufacturer's instructions. Briefly, cells were seeded in a 96-well plate at a density of 10,000 cells per well (90 μL). After 24 h, 10 μL of the tested compounds were added to the culture media at desired concentration range and incubated for 72 h. After that 50 μL of the XTT solution was added (1 mg/mL XTT+0.383 mg/mL N-methyl dibenzopyrazine methyl sulfate). The absorbance was recorded at 495 nm following a 2 h-incubation with the dye. IC50 values were determined by non-linear regression method using GraphPad Prism version 5.00 for Windows (GraphPad Software, La Jolla, Calif., USA).
(§2) In addition, the anti-proliferative effect was tested against a human T-lymphoblastic leukemia line CCRF-CEM, promyelocytic leukemia HL-60 and cervical carcinoma HeLa S3 growing in liquid suspension. Cell viability was determined following a 3-day incubation using 2,3-bis-(2-methoxy-4-nitro-5-sulfophenyl)-2H-tetrazolium-5-carboxanilide (XTT) assay (ref.: Scudiero, D. A.; Shoemaker, R. H.; Paull, K. D.; Monks, A.; Tierney, S.; Nofziger, T. H.; Currens, M. J.; Seniff, D.; Boyd M. R. Evaluation of a Soluble Tetrazolium/Formazan Assay for Cell Growth and Drug Sensitivity in Culture Using Human and Other Tumor Cell Lines. Cancer Res. 1988, 48, 4827-4833).

The test system of a further data set is MRC-5. Description: Cytostatic/cytotoxic MTT assay, MRC-5 fibroblasts. The class given is cell-based. Particulars: Homo sapiens, MRC5; non-malignant fibroblasts, 72 h; read-out: MTT, IC50 MRC-5. From the text: (§3) Unless otherwise stated, all cells were purchased from the […] (ATCC). The CCRF-CEM line is derived from T lymphoblastic leukemia, evincing high chemosenzitivity, K562 represent cells from a […] patient sample with bcr-abl translocation, HCT116 is colorectal tumor cell line and its p53 gene knock-down counterpart (HCT116p53−/−, Horizon Discovery, UK) is a model of human cancers with p53 inactivation frequently associated with poor prognosis, A549 cell line is lung adenocarcinoma. The daunorubicin resistant subline of CCRF-CEM cells (CEM-DNR bulk) and paclitaxel resistant subline K562-TAX were selected in our laboratory by cultivation of maternal cell lines in increasing concentrations of daunorubicine or paclitaxel, respectively. The CEM-DNR cells overexpress mrp-1 and mdr-1 genes, while K562-TAX cells overexpress mdr-1 only. Both proteins belong to the family of ABC transporters and are involved in the primary and/or acquired multidrug resistance phenomenon (ref.: Gottesman, M. M.; Fojo, T.; Bates, S. E. Multidrug resistance in cancer: role of ATP-dependent transporters. Nat. Rev. Cancer. 2002, 2, 48-58. (b) Noskova, V.; Dzubak, P.; Kuzmina, G.; Ludkova, A.; Stehlik, D.; Trojanec, R.; Janostakova, A.; Korinkova, G.; Mihal, V.; Hajduch, M. In vitro chemoresistance profile and expression/function of MDR associated proteins in resistant cell lines derived from CCRF-CEM, K562, A549 and MDA MB 231 parental cells. Neoplasma 2002, 49, 418-425). Non-malignant MRC-5 and BJ cells, derived from normal human fibroblasts, were used as controls. The cells were maintained in Nunc/Corning 80 cm^2 plastic tissue culture flasks and cultured in cell culture medium (DMEM/RPMI 1640 with 5 g/L glucose, 2 mM glutamine, 100 U/mL penicillin, 100 µg/mL streptomycin, 10% fetal calf serum, and NaHCO3). Cell suspensions were prepared and diluted according to the particular cell type and the expected target cell density (25,000-30,000 cells/well based on cell growth characteristics). Cells were added by pipette (80 L) into 96-well microtiter plates. Inoculates were allowed a pre-incubation period of 24 h at 37° C. and 5% CO2 for stabilization. Four-fold dilutions, in 20-L aliquots, of the intended test concentration were added to the microtiter plate walls at time zero. All test compound concentrations were examined in duplicate. Incubation of the cells with the test compounds lasted for 72 h at 37° C., in a 5% CO2 atmosphere at 100% humidity. At the end of the incubation period, the cells were assayed using MTT. Aliquots (10 L) of the MTT stock solution (5 mg/ml) were pipetted into each well and incubated for another 1-4 h. After this incubation period the formazan produced was dissolved by addition of 100 µL/well of 10% aq SDS (pH 5.5), followed by a further incubation at 37° C. overnight. The optical density was measured at 540 nm. The IC50 value, the drug concentration inhibiting the cell growth by 50%, was calculated from appropriate dose-response curves.
(§4) In vitro cytotoxic/cytostatic activity final nucleosides 1-5 was initially evaluated against […] cell lines derived from human solid tumors including lung (A549 cells) and colon (HCT116 and HCT116p53−/−) carcinomas, as well as leukemia cell lines (CCRF-CEM, CEM-DNR, K562 and K562-TAX) and, for comparison, non-malignant BJ and MRC-5 fibroblasts. Concentrations inhibiting the cell growth by 50% (IC50) were determined using a quantitative metabolic staining with 3-(4,5-dimethylthiazol-2-yl)-2,5-diphenyltetrazolium bromide (MTT) (ref.: Denizot, F.; Lang, R. Rapid colorimetric assay for cell growth and survival: Modifications to the tetrazolium dye procedure giving improved sensitivity and reliability. J. Immunol. Meth. 1986, 89, 271-277) following a 3-day treatment.

For another data set, the system named is K562-TAX. Put plainly: Cytostatic/cytotoxic MTT assay, K562-TAX. Particulars: Homo sapiens, paclitaxel resistant subline, 72 h, read-out: MTT, IC50 K562-TAX. It counts as cell-based.
Text: as §3, §4
(§5) Multidrug resistance is a major therapeutic problem in cancer chemotherapy. […]
In general terms: Tetrazolium dyes change colour on reduction, which living cells bring about.

For another data set, the system named is K562. Put plainly: Cytostatic/cytotoxic MTT assay, K562. It counts as cell-based. Particulars: Homo sapiens, K562; 72 h incubation; read-out: MTT, IC50 K562.
Text: as §3, §4

In the next data set the test system is HL60. Description: XTT cytotoxicity assay, HL-60. Particulars: Homo sapiens, HL-60; 72 h incubation; read-out: XTT, IC50 HL60. The class given is cell-based. The protocol:
as §1, §2

The test system of the next data set is CEM-DNR-bulk. Description: Cytostatic/cytotoxic MTT assay, CEM-DNR-bulk. It counts as cell-based. Particulars: Homo sapiens; daunorubicin resistant subline, 72 h; read-out: MTT, IC50 CEM-DNR-bulk.
Text: as §3, §4, §5

The test system of another data set is HepG2. Put plainly: XTT cytotoxicity assay, HepG2. It counts as cell-based. The conditions noted are these: Homo sapiens, HepG2; 72 h incubation; read-out: XTT, IC50 HepG2. On the procedure: as §1
Another data set deals with BJ. Put plainly: Cytostatic/cytotoxic MTT assay, BJ fibroblasts. The class given is cell-based. The conditions noted are these: Homo sapiens, non-malignant fibroblasts, 72 h, read-out: MTT, IC50 BJ.
Text: as §3, §4

The subject of a further data set is HCT116. Description: Cytostatic/cytotoxic MTT assay, HCT116. It counts as cell-based. The conditions noted are these: Homo sapiens, HCT-116; 72 h incubation; read-out: MTT, IC50 HCT116.
Text: as §3, §4, §5

A further data set concerns A549. Put plainly: Cytostatic/cytotoxic MTT assay, A549. The class given is cell-based. The conditions noted are these: Homo sapiens, A549; 72 h incubation; read-out: MTT, IC50 A549.
Text: as §3, §4

The subject of another data set is CCRF-CEM. Description: Cytostatic/cytotoxic MTT assay, CCRF-CEM. It counts as cell-based. Particulars: Homo sapiens, 72 h incubation, read-out: MTT, IC50 CCRF-CEM.
Text: as §3, §4

For another data set, the system named is HCT116p53-/-. Put plainly: Cytostatic/cytotoxic MTT assay, HCT116p53-/-. It counts as cell-based. Particulars: Homo sapiens, HCT-116; 72 h incubation; read-out: MTT, IC50 HCT116 p53-/-.
Text: as §3, §4, §5

As to `CNc1ncnc2c1c(I)cn2[C@@H]1O[C@H](CO)[C@@H](O)[C@H]1O` [Compound 3h, 5-Iodo-4-methylamino-7-(β-D-ribofuranosyl)-7H-pyrrolo[2,3-d]pyrimidine], the IC50 with HeLa S3 is over 20 µM; in the data set with MRC-5 it was over 100 µM; with K562-TAX, over 20 µM; in the data set with K562, over 100 µM; in the data set on HL60, over 20 µM; with CEM-DNR-bulk, over 20 µM. In addition, the IC50 in the data set on HepG2 is over 20 µM; in the data set on BJ, over 100 µM; with HCT116, over 100 µM; in the data set with A549, over 100 µM; in the data set with CCRF-CEM, over 100 µM; in the data set on HCT116p53-/-, over 100 µM.
`Cc1ncnc2c1c(I)cn2[C@@H]1O[C@H](CO)[C@@H](O)[C@H]1O` [Compound 5h, 5-Iodo-4-methyl-7-(β-D-ribofuranosyl)-7H-pyrrolo[2,3-d]pyrimidine]: the IC50 in the data set with HeLa S3 is 4.08 µM; in the data set on MRC-5, 13.3 µM; in the data set on K562-TAX, over 20 µM; in the data set on K562, 17.8 µM; with HL60, 2.65 µM; in the data set with CEM-DNR-bulk it was 12.6 µM. Besides, the IC50 is 3.46 µM in the data set with HepG2; over 100 µM with BJ; 4.72 µM with HCT116; 12.2 µM in the data set with A549; 5.48 µM in the data set on CCRF-CEM; 7.57 µM with HCT116p53-/-.
Consider `Cc1ncnc2c1c(Br)cn2[C@@H]1O[C@H](CO)[C@@H](O)[C@H]1O` [Compound 5i, 5-Bromo-4-methyl-7-(β-D-ribofuranosyl)-7H-pyrrolo[2,3-d]pyrimidine], for which the melting point – broadly, the temperature of the solid-liquid transition – was 188 to 189 °C. Besides, in the data set with HeLa S3, the IC50 turned out to be 13.8 µM. The IC50 in the data set on MRC-5 is 24.4 µM. Moreover, the IC50 in the data set with K562-TAX is 15.8 µM. Also, in the data set with K562, the IC50 was over 20 µM. Also, the IC50 with HL60 was 7.24 µM. The IC50 in the data set on CEM-DNR-bulk was over 20 µM. Further, the IC50 in the data set with HepG2 was found to be 5.55 µM. In the data set with BJ, the IC50 was over 100 µM. Also, the IC50 in the data set with HCT116 came to 15.7 µM. In the data set with A549, the IC50 is over 20 µM. In addition, in the data set on CCRF-CEM, the IC50 was determined as 15 µM. For the same compound, the IC50 in the data set on HCT116p53-/- was 19.6 µM.

These data come from US9586986B2, “Substituted 7-deazapurine ribonucleosides for therapeutic uses” (Institute of Organic Chemistry and Biochemistry ASCR, v.v.i., priority 2014, dated 2017).
